# In ChEMBL document CHEMBL5665443, “Enzyme Inhibitor Single Concentration assay results for EUbOPEN Chemogenomics Library” (2024):
# Assays:
# [1] = target: Methyl-CpG-binding domain protein 4 (Homo sapiens) (UniProt O95243); conditions: Compound Concentration 10.0 uM, Hit No;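 also: MBD4 activity read as fluorescence at 594 nm from cleavage and release of a quenched duplex DNA oligonucleotide, with APE1 coupled to incise the strand and raise turnover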
# Description: Inhibition of MBD4 by quantifying inhibition of MBD4-mediated cleavage and dissociation of quenched duplex DNA oligonucleotides, measured as fluorescence at 594 nm. To generate a functional strand incision and increase turn-over this assay is coupled to APE1.
# [2] = target: DNA-3-methyladenine glycosylase (Homo sapiens) (UniProt P29372); conditions: Compound Concentration 10.0 uM, Hit No;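 also: enzyme assay where MPG cuts a quenched duplex DNA oligonucleotide probe, paired with APE1 for strand incision and turnover, read as fluorescence at 594 nm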
# Sequence of DNA-3-methyladenine glycosylase (Homo sapiens) (P29372 whole entry): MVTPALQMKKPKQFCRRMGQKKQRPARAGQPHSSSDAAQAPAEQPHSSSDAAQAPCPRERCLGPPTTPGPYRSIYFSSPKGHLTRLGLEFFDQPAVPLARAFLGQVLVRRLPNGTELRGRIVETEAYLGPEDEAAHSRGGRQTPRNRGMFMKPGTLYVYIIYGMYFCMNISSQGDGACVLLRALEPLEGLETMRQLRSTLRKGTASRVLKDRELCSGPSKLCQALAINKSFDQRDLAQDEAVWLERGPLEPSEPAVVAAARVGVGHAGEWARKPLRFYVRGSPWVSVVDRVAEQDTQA
# Description: Inhibition of MPG by quantifying inhibition of MPG-mediated cleavage and dissociation of quenched duplex DNA oligonucleotides, measured as fluorescence at 594 nm. To generate a functional strand incision and increase turn-over this assay is coupled to APE1.
# [3] = target: T1, Adenine DNA glycosylase (Homo sapiens) (UniProt Q9UIF7); conditions: Compound Concentration 10.0 uM, Hit No;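 also: human MUTYH activity read as 594 nm fluorescence from cleavage and release of a quenched DNA duplex, coupled with APE1 for strand incision, lower signal meaning inhibition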
# T1 sequence (whole entry): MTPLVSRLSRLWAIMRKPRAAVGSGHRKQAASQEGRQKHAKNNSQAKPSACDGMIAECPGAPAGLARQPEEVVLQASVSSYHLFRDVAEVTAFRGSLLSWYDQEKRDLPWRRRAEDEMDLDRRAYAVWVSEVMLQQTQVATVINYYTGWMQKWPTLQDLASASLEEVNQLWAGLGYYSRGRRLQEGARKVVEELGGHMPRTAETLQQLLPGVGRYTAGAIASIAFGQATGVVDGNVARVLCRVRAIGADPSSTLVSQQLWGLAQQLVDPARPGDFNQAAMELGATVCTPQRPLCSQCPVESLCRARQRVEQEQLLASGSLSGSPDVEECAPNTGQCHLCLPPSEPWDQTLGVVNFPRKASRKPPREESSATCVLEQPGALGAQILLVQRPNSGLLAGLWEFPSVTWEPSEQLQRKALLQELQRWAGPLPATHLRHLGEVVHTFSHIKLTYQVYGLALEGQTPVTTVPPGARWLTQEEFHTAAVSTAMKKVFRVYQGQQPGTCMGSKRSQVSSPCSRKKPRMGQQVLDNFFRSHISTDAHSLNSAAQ
# Description: Inhibition of MUTYH by quantifying inhibition of MUTYH-mediated cleavage and dissociation of quenched duplex DNA oligonucleotides, measured as fluorescence at 594 nm. To generate a functional strand incision and increase turn-over this assay is coupled to APE1.
# [4] = target: Endonuclease 8-like 1 (Homo sapiens) (UniProt Q96FI4); conditions: Compound Concentration 10.0 uM, Hit No;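 also: fluorescence at 594 nm from quenched duplex DNA oligonucleotides released by NEIL1 cleavage and strand separation, reported as reduction of this enzyme activity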
# Sequence of Endonuclease 8-like 1 (Homo sapiens) (Q96FI4 whole entry): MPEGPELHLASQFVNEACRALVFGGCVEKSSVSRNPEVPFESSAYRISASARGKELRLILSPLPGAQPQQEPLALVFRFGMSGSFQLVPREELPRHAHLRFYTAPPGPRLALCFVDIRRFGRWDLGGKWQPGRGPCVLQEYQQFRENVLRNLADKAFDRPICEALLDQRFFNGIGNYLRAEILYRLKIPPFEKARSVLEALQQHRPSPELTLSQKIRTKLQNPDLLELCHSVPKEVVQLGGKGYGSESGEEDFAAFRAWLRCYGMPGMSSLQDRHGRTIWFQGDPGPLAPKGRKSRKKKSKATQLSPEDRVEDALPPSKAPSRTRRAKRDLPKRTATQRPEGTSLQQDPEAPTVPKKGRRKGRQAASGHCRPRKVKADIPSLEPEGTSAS
# Description: Inhibition of NEIL1 by quantifying inhibition of NEIL1-mediated cleavage and dissociation of quenched duplex DNA oligonucleotides, measured as fluorescence at 594 nm.
# [5] = target: T2, Endonuclease 8-like 2 (Homo sapiens) (UniProt Q969S2); conditions: Compound Concentration 10.0 uM, Hit No;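 also: fluorescence at 594 nm reports NEIL2 cutting and release of a quenched double-stranded DNA oligo substrate, reduced signal read as inhibition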
# T2 sequence (whole entry): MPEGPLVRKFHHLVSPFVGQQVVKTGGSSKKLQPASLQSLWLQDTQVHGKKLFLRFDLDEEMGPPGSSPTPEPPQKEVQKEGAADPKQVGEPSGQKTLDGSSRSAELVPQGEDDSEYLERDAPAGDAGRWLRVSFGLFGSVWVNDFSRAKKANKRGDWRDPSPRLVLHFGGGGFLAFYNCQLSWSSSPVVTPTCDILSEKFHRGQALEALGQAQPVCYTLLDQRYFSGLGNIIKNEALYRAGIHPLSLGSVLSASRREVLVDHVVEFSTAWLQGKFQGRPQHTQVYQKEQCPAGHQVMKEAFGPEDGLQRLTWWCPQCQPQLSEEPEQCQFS
# Description: Inhibition of NEIL2 by quantifying inhibition of NEIL2-mediated cleavage and dissociation of quenched duplex DNA oligonucleotides, measured as fluorescence at 594 nm.
# [6] = target: T3, Endonuclease III-like protein 1 (Homo sapiens) (UniProt P78549); conditions: Compound Concentration 10.0 uM, Hit No;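 also: enzyme assay tracking NTHL1 cutting and release of a quenched double-stranded DNA oligo substrate, read as fluorescence at 594 nm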
# T3 sequence (whole entry): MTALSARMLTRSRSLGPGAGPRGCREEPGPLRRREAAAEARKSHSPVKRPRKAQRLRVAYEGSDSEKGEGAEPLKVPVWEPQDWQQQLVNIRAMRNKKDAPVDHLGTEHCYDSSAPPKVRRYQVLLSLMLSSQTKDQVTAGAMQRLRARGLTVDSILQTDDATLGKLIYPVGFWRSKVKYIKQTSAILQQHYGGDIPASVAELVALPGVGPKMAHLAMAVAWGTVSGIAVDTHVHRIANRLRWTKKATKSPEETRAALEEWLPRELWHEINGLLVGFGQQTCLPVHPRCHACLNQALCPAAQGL
# Description: Inhibition of NTHL1 by quantifying inhibition of NTHL1-mediated cleavage and dissociation of quenched duplex DNA oligonucleotides, measured as fluorescence at 594 nm.
# [7] = target: N-glycosylase/DNA lyase (Homo sapiens) (UniProt O15527); conditions: Compound Concentration 10.0 uM;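 also: OGG1 cleavage of a quenched duplex DNA oligonucleotide, coupled to APE1 for strand incision, read as fluorescence at 594 nm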
# Sequence of N-glycosylase/DNA lyase (Homo sapiens) (O15527 whole entry): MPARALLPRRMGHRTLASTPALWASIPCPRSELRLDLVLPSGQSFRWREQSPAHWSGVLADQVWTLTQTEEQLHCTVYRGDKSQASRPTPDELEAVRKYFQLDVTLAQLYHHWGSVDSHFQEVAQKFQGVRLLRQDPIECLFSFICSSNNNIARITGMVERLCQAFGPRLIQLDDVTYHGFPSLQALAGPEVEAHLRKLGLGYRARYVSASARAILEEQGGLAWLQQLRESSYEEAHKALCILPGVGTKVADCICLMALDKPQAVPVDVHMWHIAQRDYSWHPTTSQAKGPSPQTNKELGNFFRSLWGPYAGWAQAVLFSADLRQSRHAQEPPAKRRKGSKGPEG
# Description: Inhibition of OGG1 by quantifying inhibition of OGG1-mediated cleavage and dissociation of quenched duplex DNA oligonucleotides, measured as fluorescence at 594 nm. To generate a functional strand incision and increase turn-over this assay is coupled to APE1.
# [8] = target: T4, Single-strand selective monofunctional uracil DNA glycosylase (Homo sapiens) (UniProt Q53HV7); conditions: Compound Concentration 10.0 uM, Hit No;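 also: enzymatic SMUG1 assay coupled with APE1, reading fluorescence at 594 nm released when a quenched double-stranded DNA oligonucleotide substrate is cleaved and separated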
# T4 sequence (whole entry): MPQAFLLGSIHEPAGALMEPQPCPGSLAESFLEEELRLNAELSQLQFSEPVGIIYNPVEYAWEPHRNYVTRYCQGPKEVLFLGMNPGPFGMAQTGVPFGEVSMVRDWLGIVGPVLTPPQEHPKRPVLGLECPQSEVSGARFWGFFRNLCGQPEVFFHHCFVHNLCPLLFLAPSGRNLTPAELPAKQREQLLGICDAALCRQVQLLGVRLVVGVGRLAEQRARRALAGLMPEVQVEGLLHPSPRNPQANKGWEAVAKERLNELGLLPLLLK
# Description: Inhibition of SMUG1 by quantifying inhibition of SMUG1-mediated cleavage and dissociation of quenched duplex DNA oligonucleotides, measured as fluorescence at 594 nm. To generate a functional strand incision and increase turn-over this assay is coupled to APE1.
# [9] = target: G/T mismatch-specific thymine DNA glycosylase (Homo sapiens) (UniProt Q13569); conditions: Compound Concentration 10.0 uM, Hit No;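 also: human TDG cleavage of quenched duplex DNA oligonucleotides coupled to APE1, strand release read as fluorescence at 594 nm, inhibition of TDG activity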
# Sequence of G/T mismatch-specific thymine DNA glycosylase (Homo sapiens) (Q13569 whole entry): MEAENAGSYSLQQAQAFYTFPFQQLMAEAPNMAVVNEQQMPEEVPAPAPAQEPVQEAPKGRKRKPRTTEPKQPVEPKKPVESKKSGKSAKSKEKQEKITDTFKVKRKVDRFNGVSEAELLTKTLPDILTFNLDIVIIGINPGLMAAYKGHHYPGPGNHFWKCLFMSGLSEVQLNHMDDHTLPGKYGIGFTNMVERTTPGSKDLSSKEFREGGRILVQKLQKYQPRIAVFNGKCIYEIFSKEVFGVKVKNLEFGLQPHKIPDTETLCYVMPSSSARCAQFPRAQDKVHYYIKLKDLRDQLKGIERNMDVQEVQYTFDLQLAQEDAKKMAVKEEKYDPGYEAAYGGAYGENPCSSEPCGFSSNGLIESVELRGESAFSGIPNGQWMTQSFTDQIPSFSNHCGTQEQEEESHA
# Description: Inhibition of TDG by quantifying inhibition of TDG-mediated cleavage and dissociation of quenched duplex DNA oligonucleotides, measured as fluorescence at 594 nm. To generate a functional strand incision and increase turn-over this assay is coupled to APE1.
# [10] = target: Uracil-DNA glycosylase (Homo sapiens) (UniProt P13051); conditions: Compound Concentration 10.0 uM, Hit No;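 also: UNG excision on a quenched double-stranded DNA oligo probe, with APE1 added for strand incision and turnover, read as fluorescence at 594 nm as strands separate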
# Sequence of Uracil-DNA glycosylase (Homo sapiens) (P13051 whole entry): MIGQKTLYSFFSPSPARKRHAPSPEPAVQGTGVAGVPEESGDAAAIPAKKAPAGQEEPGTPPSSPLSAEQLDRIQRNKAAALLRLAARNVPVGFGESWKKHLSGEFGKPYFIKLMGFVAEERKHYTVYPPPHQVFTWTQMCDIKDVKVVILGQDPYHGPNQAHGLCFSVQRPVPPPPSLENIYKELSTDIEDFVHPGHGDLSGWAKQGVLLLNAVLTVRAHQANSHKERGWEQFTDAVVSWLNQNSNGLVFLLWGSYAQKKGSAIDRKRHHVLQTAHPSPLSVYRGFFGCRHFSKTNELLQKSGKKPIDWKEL
# Description: Inhibition of UNG by quantifying inhibition of UNG-mediated cleavage and dissociation of quenched duplex DNA oligonucleotides, measured as fluorescence at 594 nm. To generate a functional strand incision and increase turn-over this assay is coupled to APE1.
# Sequence of Methyl-CpG-binding domain protein 4 (Homo sapiens) (O95243 whole entry, the tested form may be a part): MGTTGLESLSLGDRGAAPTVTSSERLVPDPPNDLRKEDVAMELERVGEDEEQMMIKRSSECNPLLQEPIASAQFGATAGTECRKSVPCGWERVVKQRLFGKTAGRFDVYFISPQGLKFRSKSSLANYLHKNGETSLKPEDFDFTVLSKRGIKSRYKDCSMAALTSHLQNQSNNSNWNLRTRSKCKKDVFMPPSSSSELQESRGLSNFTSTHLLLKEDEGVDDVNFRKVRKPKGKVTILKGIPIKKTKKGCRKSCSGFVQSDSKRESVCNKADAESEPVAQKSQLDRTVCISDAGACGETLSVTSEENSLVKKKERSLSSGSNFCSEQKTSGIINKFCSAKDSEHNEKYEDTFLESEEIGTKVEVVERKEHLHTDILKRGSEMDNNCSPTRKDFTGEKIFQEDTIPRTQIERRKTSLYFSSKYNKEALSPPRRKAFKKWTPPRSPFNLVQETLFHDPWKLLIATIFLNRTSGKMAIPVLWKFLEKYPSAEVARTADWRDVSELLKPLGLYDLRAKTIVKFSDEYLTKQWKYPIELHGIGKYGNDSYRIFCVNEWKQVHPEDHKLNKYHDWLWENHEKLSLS
SMILES,inhibition [1] [%],inhibition [2] [%],inhibition [3] [%],inhibition [4] [%],inhibition [5] [%],inhibition [6] [%],inhibition ([7]; Hit No) [%],inhibition [8] [%],inhibition [9] [%],inhibition [10] [%],inhibition ([7]; Hit Yes) [%]
Cc1ccc2c(c1CCC(=O)O)CC[C@@H](NS(=O)(=O)c1ccc(Cl)cc1)C2,16.2,11.8,33.4,5.13,1.01,15.1,10,4.86,18,-7.64,–
O=[N+]([O-])c1ccc(CN2CCOCCOCCN(Cc3ccc([N+](=O)[O-])cc3)CCOCC2)cc1,13.5,31.4,3.42,-2.36,-0.35,23.7,-5.46,-2.67,-1.51,-6.52,–
Cc1onc(-c2ccc(F)cc2)c1COc1ccc(C(=O)N2CCS(=O)(=O)CC2)cn1,21.2,18.2,32,-9.77,-7.99,12.9,-9.75,-9.34,0.685,-0.327,–
Nc1nc2cc(-c3cc(Cl)ccc3Oc3cc(F)c(S(=O)(=O)Nc4ncns4)cc3F)ccc2[nH]1,38.8,20.7,39.3,6.97,-7.23,6.35,-2.14,4.45,33.8,1.83,–
CC(CNS(=O)(=O)C(C)C)c1ccc(-c2ccc(C#N)cc2)cc1 (stereo not given),19.3,23.5,-2.6,12,0.669,4.7,-4.77,7.84,11.5,-7.52,–
CC(=O)Nc1cccc2c1c(Sc1ccc(Cl)cc1)c(C)n2CC(=O)O,11.4,5.39,23.9,-0.204,5.76,6.32,3.49,-1.39,16.4,-0.965,–
COc1cc(NC(=O)c2ccc(-c3ccc(Cl)cc3)o2)cc(OC)c1,21.1,18,-0.703,6.97,-9.78,8.82,3.08,15.3,9.84,3.14,–
CS(=O)(=O)c1cccc(NC(=O)N(Cc2ccc(C(=O)Nc3nnn[nH]3)cc2)c2ccc(C3CCCCC3)cc2)c1,45.7,26.7,44.3,1.57,14.7,7.79,18.7,6.31,36.1,-4.34,–
Cc1ccc(C(C)(O)c2nc3ccccc3s2)c(C)c1 (stereo not given),0.731,10.5,0.661,7.8,11,8.52,2.68,9.99,14.6,-8.45,–
C[C@]1(C(=O)N(CCCC(=O)O)Cc2cccc(Cl)c2)CCN1C(=O)c1csc2ccccc12,-2.17,-1.32,11.5,3.5,-3.73,-9.8,3.32,7.04,25.5,-7.61,–
O=c1ccc2c(OCCCCc3ccccc3)c3ccoc3cc2o1,-4.82,2.27,4.38,4.31,2.71,7.17,0.716,0.0989,5.01,-2.86,–
NCCc1c[nH]c2ccc(C(N)=O)cc12,-4.67,-1.86,4.88,7.95,-5.97,-7.6,-3.21,0.209,8.45,-6.78,–
COc1ccc(/C=C/CCCCOc2ccc(C(=O)c3cccc(C(=O)O)c3)cc2CCC(=O)O)cc1,49.9,15.9,28.6,-0.204,15.7,2.66,–,12.1,43.2,-7.57,42.4
COc1ccc(-c2csc(NC(=O)[C@H]3CCCCN3S(=O)(=O)c3ccc(C)cc3)n2)cc1,10.3,12,11.1,4.6,3.47,22,-5.94,12.1,5.87,-6.47,–
CCCC(=O)N[C@@H](Cc1ccc(O)cc1)C(=O)NCCCCCCCNCCCCN,20.4,2.86,-4.41,4.46,-1.62,-3.56,-0.213,-0.749,12.1,-4.14,–
O=C(COc1cccc2ccccc12)Nc1cc(Cl)ccc1C(=O)O,33.2,16.5,64.4,6.38,5.25,12.9,24.8,8.57,37.7,2.63,–
COc1cc2nc(N3CCN(C(=O)C4CCCO4)CC3)nc(N)c2cc1OC (stereo not given),17,11.2,19,13.6,22.5,-3.21,0.439,3.65,22.2,-7.11,–
CCc1cc(C(C)=O)c(O)cc1OCCCCCC(C)(C)c1nn[nH]n1,24,13,7.7,-0.204,-8.97,9.99,16.1,0.79,21.1,-4.34,–
CCC(C)(C)/N=C(\NC#N)Nc1cccnc1,4.69,6.03,4.93,1.64,-1.62,21.2,-5.35,-2.33,5.61,-3.3,–
COc1cc(OC)cc(C(=O)NNC(=O)Nc2cccc3ccccc23)c1,-8.62,3.65,2.2,-1.69,5.26,2.66,3.09,3.6,11.6,-7.99,–
Cc1cc(OCCCS(C)(=O)=O)cc(C)c1-c1cccc(COc2ccc3c(c2)OC[C@H]3CC(=O)O)c1,46.9,12.1,49.2,-4.36,8.25,10.7,18.3,12.3,44.4,-3.46,–
